# Experimental data published in patent US20110178072A1, “STEREOSPECIFICITY OF METHYLSULFINYL REDUCTION” (priority 2008, published 2011).
# Tests used:
# [1] = tested on: CBS; assay: Western blot analysis of CBS in SK-Hep1 cells grown on Met and Met sulfoxide media; type: cell-based, human; conditions: 0.1 mM
# Protocol: Analysis of SK-Hep1 and fRMsr-transfected SK-Hep1 cells—SK-Hep1 and fRMsr-transfected SK-Hep1 cells were plated in 6-well plates at 7.5×10^4 cells/well in regular DMEM medium. The medium was changed to Met-free DMEM supplemented with either Met or individual Met sulfoxides at 24 hours after plating. Cells were then collected every 24 hours until 96 hours. Protein concentration was measured by the Bradford assay and the samples were probed by standard immunoblot assays with polyclonal MsrA (kindly provided by Bertrand Friguet), cystathionine beta synthase (CBS) (kindly provided by Ruma Banerjee), and activating transcription factor 3 (ATF3) (Santa Cruz Biotechnology) antibodies.
# [2] = tested on: yfRMsr transfected SK-Hep1; assay: Specific activity of yfRMsr transfected SK-Hep1 cells towards free Met sulfoxides; type: biochemical, human; conditions: for Specific activity of fRMsr-transfected cells: fRMsr-transfected SK-Hep1 cells; for Specific activity for each Met-O: yfRMsr transfected SK-Hep1, ± standard deviations from 3 independent experiments
# Protocol: Transfection of yeast fRMsr gene into SK-Hep1 cells—A 6 His-tag sequence was cloned at the C-terminus of yeast fRMsr, the sequence was inserted into a mammalian expression vector, pCI-neo (Promega), and the resulting construct was verified by DNA sequencing. […] To establish a stable cell line, cells were selected in the presence of 800 μg/mL G418 sulfate (Promega), and further maintained in the presence of 400 μg/mL G418 sulfate. Expression of recombinant fRMsr was verified by western blotting using anti-His-tag antibodies and Msr activities were assayed by an HPLC method using OPA derivatization.
# (§1) Activity assays of fRMsr—Reaction mixture (40 μL) included 50 mM DTT, 1 mM substrate (Met-RO or Met-SO), and purified enzyme or cell lysate prepared by treatment with CelLytic™M cell lysis reagent (Sigma). 20 μL of the reaction mixture was mixed with 2 μL of TCA and subjected to OPA derivatization as described above and then injected onto the column to measure endogenous Met level in the samples. An additional 20 μL from the same original reaction mixture were incubated at 37° C. for 30 minutes and then subjected to OPA derivatization by the same procedure using TCA. After derivatization of the sample (2-5 μL) by adding OPA solution to 100 μL as a final volume, 50 μL of the mixture were subjected to an HPLC separation as described above.
# [3] = tested on: MsrA-knockdown SK-Hep1 cells; assay: Growth of MsrA-knockdown SK-Hep1 cells on Met and Met sulfoxide media; type: cell-based, human; conditions: 0.1 mM, 96 hours
# Protocol: Proliferation Assay—Cell growth was quantified using colorimetric MTS assay (Promega). Cells in regular DMEM medium were plated in 96-well plates at 5×10^3 cells/well, washed with PBS, and specialized DMEM media were added that contained Met, Met-SO, Met-RO, or Met-RSO 24 hours after plating. To assay for cell proliferation, a tetrazolium compound [3-(4,5-dimethylthiazol-2-yl)-5-(3-carboxymethoxyphenyl)-2-(4-sulfophenyl)-2H-tetrazolium, inner salt; MTS] and an electron coupling reagent (phenazine methosulfate; PMS) were mixed according to the manufacturer's protocol and then 20 μL of the mixture were added to 100 μL of phenol red-excluded media that further replaced cell culture media. After 90 minutes of incubation at 37° C. in the atmosphere of 5% CO2, cell proliferation was measured at indicated time periods from 0 to 96 hours at 450 nm in a plate reader. Direct counting of viable cells using 0.2% trypan blue was done in 6-well plates. Knockdown of MsrA in SK-Hep1 cells by siRNA—Double stranded siRNAs (Dharmacon) for targeting human MsrA mRNA were used to knockdown this gene in SK-Hep1 cells. Cells were transfected with siRNA by using DharmaFECT™ Transfection Reagent (Dharmacon) according to the manufacturer's protocol. Proliferation of these cells was assayed 60 hours after transfection in comparison with control transfected cells.
# [4] = biological target: T1, yeast fRMsr (Saccharomyces cerevisiae, UniProt P36088); assay: Activity assay of purified recombinant yeast fRMsr towards free Met sulfoxides (HPLC, OPA derivatization); type: biochemical, S. cerevisiae; conditions: for Activity of recombinant yeast fRMsr protein towards the substrate: recombinant His-tagged yeast fRMsr; for Specific activity for each Met-O: yfRMsr (yeast free methionine R-sulfoxide reductase), ± standard deviations from 3 independent experiments
# T1 construct: His-tag (C); made in house; host or cells: E. coli BL21 (DE3), pET21b
# T1 sequence (P36088 1-180): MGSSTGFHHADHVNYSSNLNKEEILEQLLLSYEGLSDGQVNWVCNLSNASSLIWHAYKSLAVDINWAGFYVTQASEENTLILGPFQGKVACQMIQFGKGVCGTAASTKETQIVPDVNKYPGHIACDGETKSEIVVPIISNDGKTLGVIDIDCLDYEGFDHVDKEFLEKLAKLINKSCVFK
# Source text: Cloning and expression of yeast fRMsr—Characterization of S. cerevisiae fRMsr (YKL069W) is described in Le, D. T., et al. (2009) Functional analysis of free methionine-R-sulfoxide reductase from Saccharomyces cerevisiae. J Biol Chem., 284(7), 4354-4364. Briefly, a yeast fRMsr cDNA, which encodes a protein homologous to fRMsr from E. coli, was amplified from S. cerevisiae genomic DNA and subcloned into pET21b vector (Novagen) using primers 5′-AAACATATGATGGGCTCATCAACCGGGTTTC-3′ (sense; SEQ ID NO:1) and 5′-AAGCGGCCGCGACACATGATTTATTAATTAATTTAGCAAG-3′ (antisense; SEQ ID NO:2). After transformation into BL21 (DE3) E. coli, the subcloned sequence was verified by DNA sequencing. Cells with the plasmid in 500 mL LB medium containing 100 μg/mL ampicillin were grown until OD600 reached 0.6-0.8, followed by addition of IPTG to 0.3 mM. Protein expression was at 30° C. for 4 hours, followed by harvesting cells by centrifugation at 4,000 rpm for 5 minutes. Cells were washed with PBS and stored at −70° C. until use.
# To purify the protein, a cell pellet was dissolved in resuspension buffer (Tris-HCl, pH 7.5, 15 mM imidazole, 300 mM NaCl), and PMSF was added to a final concentration of 0.5 mM. After sonication, the supernatant was collected by centrifugation at 8,000 rpm for 30 minutes. The supernatant was loaded onto a cobalt Talon resin (Clontech) pre-equilibrated with resuspension buffer. Following washing with the same buffer, the protein was eluted with elution buffer (Tris-HCl, pH 7.5, 300 mM imidazole, 300 mM NaCl). Fractions containing yeast fRMsr were pooled together and dialyzed overnight against PBS in a dialysis cassette (Pierce).
# as §1
SMILES,Expression of CBS ([1]; SK-Hep1 cells),Specific activity of fRMsr-transfected cells [2],Specific activity for each Met-O [2],Growth of MsrA-deficient cells [3],Activity of recombinant yeast fRMsr protein towards the substrate [4],Specific activity for each Met-O [4],Expression of CBS ([1]; fRMsr-expressing SK-Hep1 cells)
"C[S@+]([O-])CC[C@H](N)C(=O)O [Met-SO, methionine-S-sulfoxide]",CBS levels were decreased,≈ 42.7 pmol/min/mg protein,42.7 ± 5.9 pmol/min/mg,grew neither,inactive,ND* (A signal corresponding to specific activity less than 5 pmol/min/mg is shown as ND (Not Detectable)),–
"C[S@@+]([O-])CC[C@H](N)C(=O)O [Met-RO, methionine-R-sulfoxide]",reduced expression,≈ 46.4 pmol/min/mg protein,46.4 ± 5.0 pmol/min/mg,grew neither,≈ 33 nmol/min/mg protein,30015 ± 2652 pmol/min/mg,normal CBS levels
